Assay results published in PubChem BioAssay (NCI).
Several values for one entry are separate records, joined by “and”; a condition that tells them apart may be missing. Identical values can stand only once.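 Test compounds were applied to cells in 96-well plates for 48 hours at 5 doses. At the GI50, growth is halved. The concentration for full growth arrest is given as TGI.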

Columns and labels:
Assay in all cases: NCI-60 cell line screen, 48 h
[1] = tested on: HCT-116 colon
[2] = tested on: HOP-92 NSCLC
[3] = tested on: KM12 colon
[4] = tested on: NCI-H522 lung
[5] = tested on: OVCAR-3 ovarian
[6] = tested on: OVCAR-4 ovarian
[7] = tested on: SF-539 CNS
[8] = tested on: SK-MEL-5 melanoma
[9] = tested on: U251 CNS
[10] = tested on: UACC-257 melanoma

O=C(CCC(C(=O)c1ccccc1)c1ccccc1)c1ccccc1 (stereo not drawn) was tested, and the GI50 [1] was 6.45 µM, the TGI [1] was greater than 100 µM and the GI50 [2] was 3.4 µM. It also gave a TGI [2] of 72.2 µM, a GI50 [3] of 3.94 µM and a TGI [3] greater than 100 µM. For the same molecule, the GI50 [4] was 2640 nM, the TGI [4] was 8.98 µM and the GI50 [5] was 5.78 µM. For the same molecule, the TGI [5] was greater than 100 µM, the GI50 [6] was 16.5 µM and the TGI [6] was greater than 100 µM. It also gave a GI50 [7] of 52 µM, a TGI [7] greater than 100 µM and a GI50 [8] of 9.29 µM. For the same molecule, the TGI [8] was 34.3 µM, the GI50 [9] was 13.4 µM and the TGI [9] was greater than 100 µM. It also gave a GI50 [10] of 17.5 µM and a TGI [10] greater than 100 µM.
With O=C(NCC(O)CNC(=O)C(F)(F)F)C(F)(F)F the TGI [1] was greater than 100 µM, the TGI [2] was greater than 100 µM and the TGI [3] was greater than 100 µM. For the same molecule, the TGI [4] was greater than 100 µM, the TGI [5] was greater than 100 µM and the TGI [6] was greater than 100 µM. The TGI [7] was greater than 100 µM, the TGI [8] was greater than 100 µM and the TGI [9] was greater than 100 µM. For the same molecule, the TGI [10] was greater than 100 µM.
With Nc1c(C(=O)c2ccc(CCCN3CCOCC3)cc2)cnn1-c1ccc(F)cc1 the GI50 [1] was greater than 25 µM, the TGI [1] was greater than 25 µM and the GI50 [2] was 3.22 µM. For the same molecule, the TGI [2] was greater than 25 µM, the GI50 [3] was greater than 25 µM and the TGI [3] was greater than 25 µM. For the same molecule, the GI50 [4] was greater than 25000 nM, the TGI [4] was greater than 25 µM and the GI50 [5] was 24.3 µM. The TGI [5] was greater than 25 µM, the GI50 [6] was greater than 19.1 µM and the TGI [6] was greater than 25 µM. The GI50 [7] was greater than 25 µM, the TGI [7] was greater than 25 µM and the GI50 [8] was 8.01 µM. The TGI [8] was 24.3 µM, the GI50 [9] was greater than 25 µM and the TGI [9] was greater than 25 µM. For the same molecule, the GI50 [10] was 24.3 µM and the TGI [10] was greater than 25 µM.
CSc1ncnc2c1ncn2C1OC(CO)C(O)OC1O (stereo not drawn) gave a TGI [1] of 21.6 µM, a TGI [2] of 22.7 µM and a TGI [3] of 36.8 µM. The TGI [4] was greater than 100 µM, the TGI [5] was 16.7 µM and the TGI [6] was 96.3 µM. It also gave a TGI [7] of 16.9 µM, a TGI [8] of 17.6 µM and a TGI [9] of 30.1 µM. For the same molecule, the TGI [10] was 15.2 µM.
OCC1OC(n2cnc3c(Cl)nc(Cl)cc32)C(O)C1O (stereo not drawn) showed a GI50 [1] greater than 100 µM, a TGI [1] greater than 100 µM and a GI50 [2] of 37.4 µM. The TGI [2] was greater than 100 µM, the GI50 [3] was greater than 100 µM and the TGI [3] was greater than 100 µM. The GI50 [4] was greater than 100000 nM, the TGI [4] was greater than 100 µM and the GI50 [5] was greater than 100 µM. The TGI [5] was greater than 100 µM, the GI50 [7] was greater than 100 µM and the TGI [7] was greater than 100 µM.
In the case of CC[C@@]1(O)C(=O)OCc2c1cc1n(c2=O)Cc2c-1nc1cc3c(cc1c2C)OCO3, the GI50 [1] is reported as 0.0181 µM, the TGI [1] is reported as 15.1 µM and the TGI [2] is reported as 0.0782 µM. It also gave a GI50 [3] of 0.0241 µM, a TGI [3] greater than 100 µM and a GI50 [4] of 0.159 nM. The GI50 [5] was 0.0758 µM and 0.0117 µM, the TGI [5] was greater than 100 µM and the GI50 [6] was 0.0244 µM and 0.0174 µM. It also gave a TGI [6] greater than 100 µM, a GI50 [7] of less than 0.0001 µM and a TGI [7] of 0.000149 µM. The GI50 [8] was less than 0.0001 µM, the TGI [8] was 0.0559 µM and the GI50 [9] was less than 0.0001 µM. For the same molecule, the GI50 [10] was 0.0159 µM and the TGI [10] was 0.278 µM.
Molecule NC1=NCCN1CC(=O)O has a GI50 [1] greater than 10000 µM, a TGI [1] greater than 10000 µM and a GI50 [2] greater than 10000 µM. For the same molecule, the TGI [2] was greater than 10000 µM, the TGI [3] was greater than 10000 µM and the TGI [4] was greater than 10000 µM. The GI50 [5] was greater than 10000 µM, the TGI [5] was greater than 10000 µM and the GI50 [6] was greater than 10000 µM. It also gave a TGI [6] greater than 10000 µM, a TGI [7] greater than 1000 µM and a GI50 [8] greater than 10000 µM. The TGI [8] was greater than 10000 µM, the GI50 [9] was greater than 10000 µM and the TGI [9] was greater than 10000 µM. For the same molecule, the GI50 [10] was greater than 10000 µM and the TGI [10] was greater than 10000 µM.
Molecule COc1ccc(-c2c(-c3cc(OC)c(OC)c(OC)c3)noc2N)cc1 has a GI50 [1] of less than 0.01 µM, a TGI [1] greater than 32 µM and a GI50 [2] of less than 0.01 µM. The TGI [2] was greater than 100 µM, the GI50 [3] was less than 0.01 µM and the TGI [3] was greater than 36.6 µM. For the same molecule, the GI50 [4] was less than 10 nM, the GI50 [5] was less than 0.01 µM and the TGI [5] was 0.0208 µM. The GI50 [6] was 0.0249 µM, the TGI [6] was 57.5 µM and the GI50 [8] was less than 0.01 µM. It also gave a TGI [8] of 0.257 µM, a GI50 [9] of less than 0.0165 µM and a TGI [9] of 12.6 µM. The GI50 [10] was less than 0.01 µM and the TGI [10] was greater than 100 µM.
